Source: PMC6896446, “Design, synthesis and molecular modelling studies of some pyrazole derivatives as carbonic anhydrase inhibitors” (Journal of Enzyme Inhibition and Medicinal Chemistry, 2019)
Read-outs that look alike come from different tables or passages of the source.

Columns and labels:
hCA II = molecular target: T1, hCA II (Homo sapiens, UniProt P00918); assay: hCA II inhibition, esterase activity method (4-nitrophenylacetate); assay type: biochemical
T1 construct: The hCA I and II isoenzymes used here were purified from human blood as previously described; from tissue; host or cells: human blood

hCA I = molecular target: T2, hCA I (Homo sapiens, UniProt P00915); assay: hCA I inhibition, esterase activity method (4-nitrophenylacetate); assay type: biochemical; settings: for IC50: against hCA I
T2 construct: The hCA I and II isoenzymes used here were purified from human blood as previously described; from tissue; host or cells: human blood

[1] = esterase method, 4-nitrophenylacetate, pH 7.4, 25 °C, mean from at least three determinations, read-out: Ki hCA II
[2] = esterase method, 4-nitrophenylacetate, pH 7.4, 25 °C, mean from at least three determinations, read-out: Ki hCA I

T2 sequence (P00915 whole entry): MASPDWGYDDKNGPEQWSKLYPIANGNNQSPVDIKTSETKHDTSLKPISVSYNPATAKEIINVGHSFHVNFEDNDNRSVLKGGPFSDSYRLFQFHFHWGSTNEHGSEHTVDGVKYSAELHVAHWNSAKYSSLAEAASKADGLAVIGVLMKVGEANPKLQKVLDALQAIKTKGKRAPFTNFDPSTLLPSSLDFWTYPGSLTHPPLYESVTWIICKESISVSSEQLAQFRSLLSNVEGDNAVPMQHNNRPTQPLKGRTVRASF

Compound | Ki (hCA II; [1]) [nM] | Ki (hCA I; [2]) [nM] | other results
COc1cc(/C=C/C(=O)c2ccc(Br)cc2)cc(OC)c1OC [Compound 2, (E)-1-(4-bromophenyl)-3-(3,4,5-trimethoxyphenyl)prop-2-en-1-one] | 17.1 | 8.03 | 
COc1cc(C2CC(c3ccc(C)cc3)=NN2C(N)=S)cc(OC)c1OC (stereo not drawn) [Compound 8, 3-p-Tolyl-5-(3,4,5-trimethoxyphenyl)-4,5-dihydro-1H-pyrazole-1-carbothioamide] | 26.1 | 11 | 
COc1cc(C2CC(c3ccc(Br)cc3)=NN2C(N)=S)cc(OC)c1OC (stereo not drawn) [Compound 7, 3-(4-Bromophenyl)-5-(3,4,5-trimethoxyphenyl)-4,5-dihydro-1H-pyrazole-1-carbothioamide] |  | 12.6 | 
COc1ccc(/C=C/C(=O)c2ccc(N)cc2)cc1OC [Compound 4, (E)-1-(4-aminophenyl)-3-(3,4-dimethoxyphenyl)prop-2-en-1-one] | 21.5 | 9.71 | 
COc1cc(C2CC(c3ccc(N)cc3)=NN2C(N)=S)cc(OC)c1OC (stereo not drawn) [Compound 6, 3-(4-Aminophenyl)-5-(3,4,5-trimethoxyphenyl)-4,5-dihydro-1H-pyrazole-1-carbothioamide] |  | 12.2 | IC50 (hCA I): 23.9 to 24.4 nM
COc1ccc(C2CC(c3ccc(N)cc3)=NN2C(N)=S)cc1OC (stereo not drawn) [Compound 9, 3-(4-Aminophenyl)-5-(3,4-dimethoxyphenyl)-4,5-dihydro-1H-pyrazole-1-carbothioamide] | 20.4 |  | Ki (hCA I): 5.13 nM
CN(C)c1ccc(/C=C/C(=O)c2ccc(O)cc2)cc1 [Compound 5, (E)-3-(4-(dimethylamino)phenyl)-1-(4-hydroxyphenyl)prop-2-en-1-one] |  |  | Ki (hCA II): 11.8 nM; Ki (hCA I): 8.28 nM
COc1cc(/C=C/C(=O)c2ccc(N)cc2)cc(OC)c1OC [Compound 1, (E)-1-(4-aminophenyl)-3-(3,4,5-trimethoxyphenyl)prop-2-en-1-one] |  |  | Ki (hCA II): 33.8 nM
CN(C)c1ccc(C2CC(c3ccc(O)cc3)=NN2C(N)=S)cc1 (stereo not drawn) [Compound 10, 5-(4-(Dimethylamino)phenyl)-3-(4-hydroxyphenyl)-4,5-dihydro-1H-pyrazole-1-carbothioamide] | 41.3 | 11.9 | melting point: 180 to 182 °C; IC50 (hCA I): 23.9 to 24.4 nM; selectivity ratio (SR) hCA I versus hCA II (hCA I; hCA I versus hCA II): 3.46
COc1cc(/C=C/C(=O)c2ccc(C)cc2)cc(OC)c1OC [Compound 3, (E)-1-p-tolyl-3-(3,4,5-trimethoxyphenyl)prop-2-en-1-one] | 67.4 | 16.9 | 
